Experimental data as given in ChEMBL document CHEMBL4118125, “MK-8325: A silyl proline-containing NS5A inhibitor with pan-genotype activity for treatment of HCV” (Bioorg Med Chem Lett, 2018).

Experiments:
[1] = Clearance in Sprague-Dawley rat at 2.5 mg/kg, iv by LC-MS/MS method; format: ADME, organism-based; details: in vivo
[2] = Volume of distribution at steady state in Sprague-Dawley rat at 2.5 mg/kg, iv by LC-MS/MS method; format: ADME, organism-based; details: in vivo, read-out: Vdss
[3] = Effective half life in Sprague-Dawley rat at 2.5 mg/kg, iv by LC-MS/MS method; format: ADME, organism-based; details: in vivo, read-out: t1/2eff (converted)
[4] = Terminal half life in Sprague-Dawley rat at 2.5 mg/kg, iv by LC-MS/MS method; format: ADME, organism-based; details: in vivo, read-out: beta t1/2 (converted)
[5] = Cmax in Sprague-Dawley rat at 5 mg/kg, po by LC-MS/MS method; format: ADME, organism-based; set-up: dose 5 mg/kg, route oral; details: in vivo
[6] = Tmax in Sprague-Dawley rat at 5 mg/kg, po by LC-MS/MS method; format: ADME, organism-based; details: in vivo
[7] = AUC in Sprague-Dawley rat at 5 mg/kg, po by LC-MS/MS method; format: ADME, organism-based; details: in vivo
Rattus norvegicus = assay: Dose normalized AUC in Sprague-Dawley rat at 5 mg/kg, po by LC-MS/MS method; format: ADME, organism-based; details: in vivo
[8] = Oral bioavailability in Sprague-Dawley rat at 5 mg/kg by LC-MS/MS method; format: ADME, organism-based; details: in vivo
[9] = Clearance in beagle dog at 1 mg/kg, iv by LC-MS/MS method; format: ADME, organism-based, Canis lupus familiaris; details: in vivo
[10] = Volume of distribution at steady state in beagle dog at 1 mg/kg, iv by LC-MS/MS method; format: ADME, organism-based, Canis lupus familiaris; details: in vivo, read-out: Vdss
[11] = Effective half life in beagle dog at 1 mg/kg, iv by LC-MS/MS method; format: ADME, organism-based, Canis lupus familiaris; details: in vivo, read-out: t1/2eff (converted)
[12] = Terminal half life in beagle dog at 1 mg/kg, iv by LC-MS/MS method; format: ADME, organism-based, Canis lupus familiaris; details: in vivo, read-out: beta t1/2 (converted)
[13] = Cmax in beagle dog at 2 mg/kg, po by LC-MS/MS method; format: ADME, organism-based, Canis lupus familiaris; set-up: dose 2 mg/kg, route oral; details: in vivo
[14] = Tmax in beagle dog at 2 mg/kg, po by LC-MS/MS method; format: ADME, organism-based, Canis lupus familiaris; details: in vivo
[15] = AUC in beagle dog at 2 mg/kg, po by LC-MS/MS method; format: ADME, organism-based, Canis lupus familiaris; details: beagle, in vivo
Canis familiaris = assay: Dose normalized AUC in beagle dog at 2 mg/kg, po by LC-MS/MS method; format: ADME, organism-based, Canis lupus familiaris; details: in vivo
[16] = Oral bioavailability in beagle dog at 2 mg/kg by LC-MS/MS method; format: ADME, organism-based, Canis lupus familiaris; details: in vivo
[17] = Clearance in cynomolgus monkey at 1 mg/kg, iv by LC-MS/MS method; format: ADME, organism-based, Macaca fascicularis; details: in vivo
[18] = Volume of distribution at steady state in cynomolgus monkey at 1 mg/kg, iv by LC-MS/MS method; format: ADME, organism-based, Macaca fascicularis; details: in vivo, read-out: Vdss
[19] = Effective half life in cynomolgus monkey at 1 mg/kg, iv by LC-MS/MS method; format: ADME, organism-based, Macaca fascicularis; details: in vivo, read-out: t1/2eff (converted)
[20] = Terminal half life in cynomolgus monkey at 1 mg/kg, iv by LC-MS/MS method; format: ADME, organism-based, Macaca fascicularis; details: in vivo, read-out: beta t1/2 (converted)
[21] = Cmax in cynomolgus monkey at 2 mg/kg, po by LC-MS/MS method; format: ADME, organism-based, Macaca fascicularis; set-up: dose 2 mg/kg, route oral; details: in vivo
[22] = Tmax in cynomolgus monkey at 2 mg/kg, po by LC-MS/MS method; format: ADME, organism-based, Macaca fascicularis; details: in vivo
[23] = AUC in cynomolgus monkey at 2 mg/kg, po by LC-MS/MS method; format: ADME, organism-based, Macaca fascicularis; details: in vivo
Cynomolgus monkey = assay: Dose normalized AUC in cynomolgus monkey at 2 mg/kg, po by LC-MS/MS method; format: ADME, organism-based, Macaca fascicularis; details: in vivo
[24] = Oral bioavailability in cynomolgus monkey at 2 mg/kg by LC-MS/MS method; format: ADME, organism-based, Macaca fascicularis; details: in vivo
[25] = Oral bioavailability in fasted dog at 2 mg/kg by LC-MS/MS method; format: ADME, organism-based, Canis lupus familiaris; details: in vivo
[26] = Drug level in Sprague-Dawley rat at 5 mg/kg, po after 24 hrs by LC-MS/MS method; format: ADME, organism-based; details: in vivo, read-out: Drug uptake
[27] = Drug level in beagle dog at 2 mg/kg, po after 24 hrs by LC-MS/MS method; format: ADME, organism-based, Canis lupus familiaris; details: in vivo, read-out: Drug uptake
[28] = Drug level in cynomolgus monkey at 2 mg/kg, po after 24 hrs by LC-MS/MS method; format: ADME, organism-based, Macaca fascicularis; details: in vivo, read-out: Drug uptake

## COC(=O)N[C@H](C(=O)N1CC(F)(F)C[C@H]1c1ncc(-c2ccc(-c3ccc4c(ccc5nc([C@@H]6C[Si](C)(C)CN6C(=O)[C@@H](NC(=O)OC)C(C)C)[nH]c54)c3)cc2)[nH]1)C(C)C.Cl.Cl
[1]
  clearance: 5.6 mL/min/kg
[2]
  Vd: 3.7 L/kg
[3]
  half-life: 7.6 h
[4]
  half-life: 9.7 h
[5]
  Cmax: 330 nM
[6]
  Tmax: 5.3 h
[7]
  AUC: 5 µM·h
Rattus norvegicus
  AUC/dose: 1 µM·h/mg/kg
[8]
  bioavailability: 28%
[9]
  clearance: 0.8 mL/min/kg
[10]
  Vd: 1.3 L/kg
[11]
  half-life: 18 h
[12]
  half-life: 26 h
[13]
  Cmax: 270 nM
[14]
  Tmax: 2.7 h
[15]
  AUC: 4.2 µM·h
Canis familiaris
  AUC/dose: 2.1 µM·h/mg/kg
[16]
  bioavailability: 8.7%
[17]
  clearance: 1.2 mL/min/kg
[18]
  Vd: 1.7 L/kg
[19]
  half-life: 17 h
[20]
  half-life: 20 h
[21]
  Cmax: 180 nM
[22]
  Tmax: 4.7 h
[23]
  AUC: 4 µM·h
Cynomolgus monkey
  AUC/dose: 2 µM·h/mg/kg
[24]
  bioavailability: 11.7%
[25]
  bioavailability: 9%
[26]
  concentration at 24 h: 51 nM
[27]
  concentration at 24 h: 40 nM
[28]
  concentration at 24 h: 55 nM
